Measurements as given in PubChem BioAssay AID1918991 (Molecular Pharmacology Branch, DTP, NCI, 2023).

System: 186277-243-T-J2-PDC complex spheroid growth
Assay: Anticancer human tumor 186277-243-T-J2-PDC patient-derived colon adenocarcinoma cell line growth inhibition [AhR]
Settings: for IC50: curve of first compound; for viability, T/C: stronger effect = lower value
Outline: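 Spheroids combined tumor cells with HUVEC endothelial cells and human MSCs as stroma. AhR antagonists were paired with standard or investigational drugs, each dosed in half-log steps down from near clinical Cmax, or from 10 microM where Cmax was unknown.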

[1] = second compound 0.1 µM, first compound 0.00316 µM
[2] = second compound 0.1 µM, first compound 0.01 µM
[3] = second compound 0.1 µM, first compound 0.0316 µM
[4] = second compound 0.1 µM, first compound 0.1 µM
[5] = second compound 0.316 µM, first compound 0.00316 µM
[6] = second compound 0.316 µM, first compound 0.01 µM
[7] = second compound 0.316 µM, first compound 0.0316 µM
[8] = second compound 0.316 µM, first compound 0.1 µM
[9] = second compound 1 µM, first compound 0.00316 µM
[10] = second compound 1 µM, first compound 0.01 µM
[11] = second compound 1 µM, first compound 0.0316 µM
[12] = second compound 1 µM, first compound 0.1 µM
[13] = second compound 3.16 µM, first compound 0.00316 µM
[14] = second compound 3.16 µM, first compound 0.01 µM
[15] = second compound 3.16 µM, first compound 0.0316 µM
[16] = second compound 3.16 µM, first compound 0.1 µM
[17] = second compound 10 µM, first compound 0.00316 µM
[18] = second compound 10 µM, first compound 0.01 µM
[19] = second compound 10 µM, first compound 0.0316 µM
[20] = second compound 10 µM, first compound 0.1 µM
[21] = second compound 0.1 µM, first compound 0.316 µM
[22] = second compound 0.1 µM, first compound 1 µM
[23] = second compound 0.316 µM, first compound 0.316 µM
[24] = second compound 0.316 µM, first compound 1 µM
[25] = second compound 1 µM, first compound 0.316 µM
[26] = second compound 1 µM, first compound 1 µM
[27] = second compound 3.16 µM, first compound 0.316 µM
[28] = second compound 3.16 µM, first compound 1 µM
[29] = second compound 10 µM, first compound 0.316 µM
[30] = second compound 10 µM, first compound 1 µM
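Further: spheroids exposed to compounds for seven days before the viability read.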
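Wherever viability, T/C is given: luminescent signal used as a stand-in for viable cell amount; 100% = DMSO vehicle control wells.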

Compound	IC50 (second compound 0.1 µM) [nM]	IC50 (second compound 0.316 µM) [nM]	IC50 (second compound 1 µM) [nM]	IC50 (second compound 3.16 µM) [nM]	IC50 (second compound 10 µM) [nM]	viability, T/C [1] [%]	viability, T/C [2] [%]	viability, T/C [3] [%]	viability, T/C [4] [%]	viability, T/C [5] [%]	viability, T/C [6] [%]	viability, T/C [7] [%]	viability, T/C [8] [%]	viability, T/C [9] [%]	viability, T/C [11] [%]	viability, T/C [12] [%]	viability, T/C [15] [%]	viability, T/C [16] [%]	viability, T/C [19] [%]	viability, T/C [20] [%]	further results
Cn1ncnc1C1c2n[nH]c(=O)c3cc(F)cc(c23)NC1c1ccc(F)cc1 (stereo not given) + Cc1ccccc1N=Nc1ccc(NC(=O)c2ccnn2C)c(C)c1	> 100	> 100	> 100	> 100	> 100	107	93.2	108	107	101	104	107	103	109	105	118	119	112	95.3	98.7	viability, T/C (second compound 0.1 µM, first compound 0.000316 µM): 107%; viability, T/C (second compound 0.1 µM, first compound 0.001 µM): 101%; viability, T/C (second compound 0.316 µM, first compound 0.000316 µM): 98.8%; viability, T/C (second compound 0.316 µM, first compound 0.001 µM): 113%; viability, T/C (second compound 1 µM, first compound 0.000316 µM): 109%; viability, T/C (second compound 1 µM, first compound 0.001 µM): 98.3%; viability, T/C [10]: 116%; viability, T/C (second compound 3.16 µM, first compound 0.000316 µM): 101%; viability, T/C (second compound 3.16 µM, first compound 0.001 µM): 101%; viability, T/C [13]: 113%; viability, T/C [14]: 105%; viability, T/C (second compound 10 µM, first compound 0.000316 µM): 95.4%; viability, T/C (second compound 10 µM, first compound 0.001 µM): 96.7%; viability, T/C [17]: 101%; viability, T/C [18]: 105%
CC1COCCN1c1cc(-c2ccnn2C)c2ccnc(-c3ccn[nH]3)c2n1 (stereo not given) + Cc1cncc(-c2nc(NCCc3c[nH]c4ccccc34)c3ncn(C(C)C)c3n2)c1	79.8	79.3	80.9	72.9	< 3.16	99	106	112	36.4	97.4	106	122	35.2	107	119	37.4	116	29	13.8	6.13	viability, T/C [21]: 7.55%; viability, T/C [22]: 3.82%; viability, T/C [23]: 8.4%; viability, T/C [24]: 4.07%; viability, T/C [10]: 90%; viability, T/C [25]: 7.76%; viability, T/C [26]: 5.82%; viability, T/C [13]: 95.3%; viability, T/C [14]: 105%; viability, T/C [27]: 9.02%; viability, T/C [28]: 5.27%; viability, T/C [17]: 25.3%; viability, T/C [18]: 26.8%; viability, T/C [29]: 3.4%; viability, T/C [30]: 2.65%
Nc1ccccc1NC(=O)c1ccc(CNC(=O)OCc2cccnc2)cc1 + Cc1cncc(-c2nc(NCCc3c[nH]c4ccccc34)c3ncn(C(C)C)c3n2)c1	3140	3060	3740	3300	< 31.6	–	–	91.1	94.1	–	–	101	105	–	82	114	94.1	97.7	42.4	36.9	viability, T/C [21]: 100%; viability, T/C [22]: 96%; viability, T/C (second compound 0.1 µM, first compound 3.16 µM): 49.7%; viability, T/C (second compound 0.1 µM, first compound 10 µM): 8.44%; viability, T/C [23]: 101%; viability, T/C [24]: 93.5%; viability, T/C (second compound 0.316 µM, first compound 3.16 µM): 48.8%; viability, T/C (second compound 0.316 µM, first compound 10 µM): 7.07%; viability, T/C [25]: 92.2%; viability, T/C [26]: 111%; viability, T/C (second compound 1 µM, first compound 3.16 µM): 57.1%; viability, T/C (second compound 1 µM, first compound 10 µM): 8.57%; viability, T/C [27]: 93.1%; viability, T/C [28]: 86.1%; viability, T/C (second compound 3.16 µM, first compound 3.16 µM): 51.6%; viability, T/C (second compound 3.16 µM, first compound 10 µM): 8.37%; viability, T/C [29]: 23.9%; viability, T/C [30]: 10.1%; viability, T/C (second compound 10 µM, first compound 3.16 µM): 2.97%; viability, T/C (second compound 10 µM, first compound 10 µM): 0.95%
